The target of the experiment is Bromodomain-containing protein 4 (Homo sapiens, UniProt O60885). Kind of experiment: Inhibitory Activity Assay of BRD4 Small Molecule Compounds: AlphaScreen kit (Perkin Elmer) was used to detect effect of the compounds on binding of BRD4 bromodomain to acetylated histone H4 polypeptide. […] Each of fusion proteins containing (His)6tag can be recognized and bound by Ni2+. […] The donor microbeads were coated with streptavidin and can bind to biotinylated acetylated H4 polypeptide. The acceptor microbeads were coated with Ni2+ ions and can bind to the BD1 protein with (His)6tag. When the BD1 protein recognized the acetylated H4 polypeptide, the donor microbeads and the acceptor microbeads can be brought closer to a certain distance. Within this range, the donor microbeads can produce singlet oxygen after being irradiated with a 680 nm excitation light, and transfer the singlet oxygen to the acceptor microbeads. After a series of cascade chemical reactions, the acceptor microbeads will generate an emission wave of 520-620 nm, which in turn can be detected a signal. In this experiment, the test system was 20 μL, and the compound needs to be diluted in buffer 1 (20 mM HEPES pH 7.4, 150 mM NaCl, 1 mM dithiothreitol). First, a solution of 20 mM compound was consecutively diluted twice, each in 10 times, totally in 100 times to a concentration of 200 μM. […] The recombinant BD1 protein solution and the acetylated histone H4 polypeptide were diluted in the buffer 2 (20 mM HEPES pH 7.4, 150 mM NaCl, 0.01% Triton X-100, 0.1% bovine serum protein (w/v, Sigma), 1 mM dithiothreitol) to 100 nM and 100 nM respectively, to obtain a 8×BD1 protein working solution and a 4× acetylated histone H4 polypeptide working solution. The donor microbeads and the acceptor microbeads are diluted together in the buffer 2, both in the ratio of 1:100, to obtain a 2× microbead mixed working solution. The plate was added with 2.5 μL of BD1 protein working solution and incubated with the compound for 20 min at room temperature, and then added with 5 μL of acetylated histone H4 polypeptide working solution and incubated at room temperature for 5 min, and finally added with 10 μL of microbead mixed working solution and incubated at room temperature for 60 min. […] IC50 values of the compounds at different concentrations for inhibiting the binding of BD1 protein to acetylated H4 polypeptide were calculated by fitting using GraphPad Prism 5.0 software.

Turning to `Cc1cc(-c2ccccc2Oc2ccccc2)n2cc[nH]c(=O)c12`, the half-maximal inhibitory concentration (IC50) (usually the concentration at which inhibition is half-maximal) is 905 nM.

Regarding `Cc1cc(-c2cc(S(C)(=O)=O)ccc2Oc2ccc(F)cc2F)n2cc[nH]c(=O)c12`, the IC50 was 132 nM.

Turning to `Cc1ccccc1Oc1ccc(NS(C)(=O)=O)cc1-c1cc(C)c2c(=O)[nH]ccn12`, the 50% inhibitory concentration (IC50) is 119 nM.

Turning to `Cc1cc(-c2cc(NS(C)(=O)=O)ccc2Oc2ccccc2)n2nc[nH]c(=O)c12`, the IC50 is 434 nM.

Take `Cc1cc(-c2ccccc2Oc2ccccc2)n2nc[nH]c(=O)c12`: the IC50 was 910 nM.

Consider `Cc1cc(-c2cc(CS(C)(=O)=O)ccc2Nc2ccccc2)n2cc[nH]c(=O)c12`, for which the IC50 was 138 nM.

On to `Cc1cc(-c2cc(CS(C)(=O)=O)ccc2Oc2ccc(F)cc2F)n2cn[nH]c(=O)c12`, for which the IC50 was 4.5 nM.

As to `Cc1cc(-c2cc(CS(C)(=O)=O)ccc2Nc2ccc(F)cc2F)n2cc[nH]c(=O)c12`, the IC50 is 161 nM.

For the compound `CCS(=O)(=O)c1ccc(Oc2ccccc2C)c(-c2cc(C)c3c(=O)[nH]ccn23)c1`, the 50% inhibitory concentration (IC50) is 131 nM.

As to `Cc1cc(-c2cc(NS(C)(=O)=O)ccc2Oc2ccccc2)n2c1C(=O)NCC2`, the IC50 was 76.9 nM.

Take `Cc1cc(-c2cc(NS(C)(=O)=O)ccc2OCC2CC2)n2cn[nH]c(=O)c12`: the IC50 is 471 nM.

On to `Cc1cc(-c2cc(NS(C)(=O)=O)ccc2Oc2ccc(F)cc2F)n2cn[nH]c(=O)c12`, for which the IC50 was 92.6 nM.

Consider `Cc1cc(-c2cc(NS(C)(=O)=O)ccc2OC2CCOCC2)n2cn[nH]c(=O)c12`, for which the IC50 was 124 nM.

`Cc1cc(-c2cc(NS(C)(=O)=O)ccc2Oc2ccccc2)n2cn[nH]c(=O)c12`: the IC50 was 114 nM.

As for `Cc1cc(-c2cc(S(C)(=O)=O)ccc2Oc2ccccc2)n2cc[nH]c(=O)c12`, the IC50 is 134 nM.

Source of the values: ChEMBL document CHEMBL5729292, “Bromodomain inhibitor compound and use thereof” (2022).
